How the values were obtained:
[1] = biological target: T1, Cbl-b (Homo sapiens, UniProt Q13191); test: Cbl-b probe displacement HTRF binding assay; conditions: 0.4 nM biotinylated Cbl-b, 150 nM BODIPY probe
T1 construct: biotin (biotinylated)
Procedure: The affinity with which compounds of the present disclosure bind to Cbl-b was assessed using probe displacement homologous time resolved fluorescence (HTRF) assays. The assays used a BODIPY™ conjugated probe (Example 54 from WO 2020264398) and biotinylated Cbl-b. The assays were performed in assay buffer consisting of 20 mM Hepes, 150 mM NaCl, 0.01% Triton X-100, 0.5 mM TCEP, 0.01% BSA. On the day of the assay, a 20 point, 1:2 master serial dilution of each compound was prepared in DMSO to span a final concentration range of 10 μM to 0 nM. Two hundred nanoliters of diluted compound was added to each well of a 384-well plate. Fifteen microliters of biotinylated—Cbl-b resuspended in assay buffer were added to each well and the plate incubated for 60 minutes at room temperature prior to addition of 5 μL of BODIPY™ probe in assay buffer. Final assay conditions included 0.4 nM of Cbl-b and 150 nM of BODIPY™ probe. After a further 15 minutes of incubation at room temperature, 5 μl of Streptavidin-Terbium cryptate reagent at 5-fold final concentration was added to each well of the 384-well plate. Binding of a probe to Cbl-b results in an increase of HTRF signal. HTRF signal was measured by Envision plate reader, while competition of a compound of the present disclosure with probe results in a decrease of signal. Percentage maximum activity in each test well was calculated based on DMSO (maximum activity, 0% displacement) and no protein control wells (baseline activity, 100% displacement). Binding affinity was determined from a dose response curve fitted using a standard four parameter fit equation. See Table 3 for data for compounds (Cbl-b Binding (IC50)).

[2] = tested on: Jurkat cells; test: IL-2 secretion assay in CD3/CD28-activated Jurkat cells (AlphaLISA); type: cell-based, human; conditions: Homo sapiens, CD3/CD28 T Cell Activator, 24 h, IL-2 AlphaLISA
Procedure: Certain compounds were also evaluated in an IL-2 secretion assay. On the day of the assay, a 16 point, 1:2 master serial dilution of each compound was prepared in Opti-MEM to span a final concentration range of 10 μM to 300 pM. Assays were setup in CORNING® tissue culture-treated 384-well microplates containing 60 nL of each dilution. Jurkat cells grown in RPMI-1640 supplemented with 10% FBS, 1% Glutamax, and 1% Pen/Strep were collected, resuspended in Opti-MEM. 50,000 cells/well and added to the compound plates. After a short spin (1200 rpm for 1 min), the plates were incubated at 37° C. for 1 hour. The cells were activated by adding 15 μL of IMUNOCULT™ Human CD3/CD28 T Cell Activator (STEMCELL Technologies) diluted in Opti-MEM. After 24 h of incubation at 37° C., aliquots of culture supernatants were transferred to OptiPlate-384 (PerkinElmer) microplates. The level of IL-2 secretion in the supernatants was then determined using the IL-2 (human) AlphaLISA Detection Kit (PerkinElmer) according to the manufacturer's recommendations. The AlphaLISA signal was measured using an EnVision plate reader (PerkinElmer). EC50 values were determined by fitting the data to a standard 4-parameter logistic equation. See Table 3 for data for select compounds (IL-2 Secretion (EC50)).

T1 sequence (Q13191 whole entry, species assumed): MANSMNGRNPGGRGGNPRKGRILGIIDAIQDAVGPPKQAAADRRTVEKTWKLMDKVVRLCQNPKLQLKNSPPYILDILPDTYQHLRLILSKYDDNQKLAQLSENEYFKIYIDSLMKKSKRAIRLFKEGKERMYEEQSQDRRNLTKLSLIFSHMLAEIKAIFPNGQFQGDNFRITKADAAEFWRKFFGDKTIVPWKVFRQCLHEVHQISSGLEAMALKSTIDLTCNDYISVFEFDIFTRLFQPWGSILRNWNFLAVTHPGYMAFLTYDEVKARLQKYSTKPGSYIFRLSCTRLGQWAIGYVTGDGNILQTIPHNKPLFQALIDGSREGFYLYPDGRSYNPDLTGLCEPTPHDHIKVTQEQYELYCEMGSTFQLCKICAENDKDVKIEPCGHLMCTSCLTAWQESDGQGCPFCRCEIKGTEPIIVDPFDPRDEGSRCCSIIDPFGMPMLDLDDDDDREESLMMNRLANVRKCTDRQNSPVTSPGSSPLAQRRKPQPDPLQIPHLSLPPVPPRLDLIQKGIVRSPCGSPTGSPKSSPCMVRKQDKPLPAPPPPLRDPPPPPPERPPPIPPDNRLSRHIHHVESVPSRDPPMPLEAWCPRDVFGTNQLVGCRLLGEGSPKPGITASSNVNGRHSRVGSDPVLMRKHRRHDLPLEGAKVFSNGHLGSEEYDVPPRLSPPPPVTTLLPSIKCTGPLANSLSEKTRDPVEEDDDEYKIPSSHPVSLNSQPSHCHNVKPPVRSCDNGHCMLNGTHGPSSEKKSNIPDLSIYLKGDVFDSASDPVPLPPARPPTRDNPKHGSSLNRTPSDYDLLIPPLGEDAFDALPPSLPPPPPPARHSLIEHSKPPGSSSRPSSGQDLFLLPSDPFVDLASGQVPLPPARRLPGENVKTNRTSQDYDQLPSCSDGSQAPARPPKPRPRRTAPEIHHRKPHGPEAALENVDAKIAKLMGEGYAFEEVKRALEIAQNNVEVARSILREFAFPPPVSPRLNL

Compound	IC50 [1] [nM]	EC50 [2] [nM]
C[C@H]1CCCN(Cc2cc3c(C4CC4)cn(-c4cc(-c5ccc(C#N)cc5-c5nncn5C)cc(C5CC5)n4)c(=O)c3[nH]2)C1 [Example 2, 4-[2-(2-{[(S)-3-methyl-1-piperidyl]methyl}-4-cyclopropyl-7-oxo-1,6-dihydro-1,6-diaza-6-indenyl)-6-cyclopropyl-4-pyridyl]-3-(4-methyl-4H-1,2,4-triazol-3-yl)benzonitrile]	< 100	< 100
COc1cc(-c2ccc(F)cc2-c2nccn2C)cc(-n2cc(C3CC3)c3cc(CN4CCC[C@H](C)C4)[nH]c3c2=O)n1 [Example 82, 4-Cyclopropyl-6-[4-[4-fluoro-2-(1-methylimidazol-2-yl)phenyl]-6-methoxypyridin-2-yl]-2-[[(3S)-3-methylpiperidin-1-yl]methyl]-1H-pyrrolo[2,3-c]pyridin-7-one]	< 100	< 100
CC1(NCc2cc3ncn(-c4cc(-c5ccc(F)cc5-n5nccc5C(F)(F)F)cc(C5CC5)n4)c(=O)c3[nH]2)CCC1 [Example 105, 3-[6-cyclopropyl-4-[4-fluoro-2-[5-(trifluoromethyl)pyrazol-1-yl]phenyl]pyridin-2-yl]-6-[[(1-methylcyclobutyl)amino]methyl]-5H-pyrrolo[3,2-d]pyrimidin-4-one]	< 100	100 to 1000
Cn1ccnc1-c1cc(F)ccc1-c1cc(C2CC2)nc(-n2cc(C3CC3)c3cc(CN[C@H]4CCOC4)[nH]c3c2=O)c1 [Example 59, 2-{[(S)-tetrahydro-3-furylamino]methyl}-4-cyclopropyl-6-{6-cyclopropyl-4-[4-fluoro-2-(1-methyl-2-imidazolyl)phenyl]-2-pyridyl}-1,6-dihydro-1,6-diaza-7-indenone]	< 100	< 100
Cn1cc(C#N)nc1-c1cc(F)ccc1-c1cc(C2CC2)nc(-n2cc(C(F)(F)F)c3nc([C@H]4CCOC4)[nH]c3c2=O)c1 [Example 48, 2-[2-(2-{2-[(R)-Tetrahydro-3-furyl]-4-oxo-7-(trifluoromethyl)-3,5-dihydro-1,3,5-triaza-5-indenyl}-6-cyclopropyl-4-pyridyl)-5-fluorophenyl]-1-methyl-4-imidazolecarbonitrile]	< 100	< 100
COCCNCc1cc2ncn(-c3cc(-c4ccc(F)cc4-c4nncn4C)cc(C4CC4)n3)c(=O)c2[nH]1 [Example 28, 3-[6-cyclopropyl-4-[4-fluoro-2-(4-methyl-1,2,4-triazol-3-yl)phenyl]pyridin-2-yl]-6-[(2-methoxyethylamino)methyl]-5H-pyrrolo[3,2-d]pyrimidin-4-one]	< 100	< 100
Cn1cnnc1-c1cc(C#N)ccc1-c1cc(C2CC2)nc(-n2cc(C3CC3)c3cc(CNC4(C)CCC4)[nH]c3c2=O)c1 [Example 37, 4-(6-cyclopropyl-2-{4-cyclopropyl-2-[(1-methylcyclobutylamino)methyl]-7-oxo-1,6-dihydro-1,6-diaza-6-indenyl}-4-pyridyl)-3-(4-methyl-4H-1,2,4-triazol-3-yl)benzonitrile]	< 100	< 100
C[C@H]1CCCN(Cc2cc3c(C4CC4)cn(-c4cc(-c5ccc(F)cc5-c5nncn5C)cc(Cl)n4)c(=O)c3[nH]2)C1 [Example 6, 2-{1[(S)-3-Methyl-1-piperidyl]methyl}-6-{6-chloro-4-[4-fluoro-2-(4-methyl-4H-1,2,4-triazol-3-yl)phenyl]-2-pyridyl}-4-cyclopropyl-1,6-dihydro-1,6-diaza-7-indenone]	< 100	< 100
C[C@H]1CCCN(Cc2cc3c(C4CC4)cn(-c4cc(-c5ccc(C#N)cc5-c5nncn5C)cc(Cl)n4)c(=O)c3[nH]2)C1 [Example 1, 4-[2-(2-{[(S)-3-methyl-1-piperidyl]methyl}-4-cyclopropyl-7-oxo-1,6-dihydro-1,6-diaza-6-indenyl)-6-chloro-4-pyridyl]-3-(4-methyl-4H-1,2,4-triazol-3-yl)benzonitrile]	< 100	< 100
Cn1cnnc1-c1cc(F)ccc1-c1cc(C2CC2)nc(-n2cnc3cc(C(O)C4CCCC4)[nH]c3c2=O)c1 (stereo not shown) [Example 126, 6-[cyclopentyl(hydroxy)methyl]-3-[6-cyclopropyl-4-[4-fluoro-2-(4-methyl-1,2,4-triazol-3-yl)phenyl]pyridin-2-yl]-5H-pyrrolo[3,2-d]pyrimidin-4-one]	< 100	< 100
Cn1ncnc1-c1cc(F)ccc1-c1cc(C2CC2)nc(-n2cnc3cc(CNC4(C)CCC4)[nH]c3c2=O)c1 [Example 120, 3-[6-cyclopropyl-4-[4-fluoro-2-(2-methyl-1,2,4-triazol-3-yl)phenyl]-pyridin-2-yl]-6-[[(1-methylcyclobutyl)amino]methyl]-5H-pyrrolo[3,2-d]pyrimidin-4-one]	< 100	< 100
Cc1ccnn1-c1cc(F)ccc1-c1cc(C2CC2)nc(-n2cc(C3CC3)c3cc(CNC4(C)CCC4)[nH]c3c2=O)c1 [Example 140, 4-cyclopropyl-6-[6-cyclopropyl-4-[4-fluoro-2-(5-methylpyrazol-1-yl)phenyl]pyridin-2-yl]-2-[[(1-methylcyclobutyl)amino]methyl]-1H-pyrrolo[2,3-c]pyridin-7-one]	< 100	100 to 1000
C[C@H]1CCCN(Cc2cc3c(C4CC4)cn(-c4cccc(-c5ccc(F)cc5-c5nccn5C)c4)c(=O)c3[nH]2)C1 [Example 17, 4-cyclopropyl-6-[3-[4-fluoro-2-(1-methylimidazol-2-yl)phenyl]phenyl]-2-[[(3S)-3-methylpiperidin-1-yl]methyl]-1H-pyrrolo[2,3-c]pyridin-7-one]	< 100	100 to 1000
CCNc1cc(-c2ccc(F)cc2-c2nncn2C)cc(-n2cc(C3CC3)c3cc(CN4CCC[C@H](C)C4)[nH]c3c2=O)n1 [Example 11, 2-{[(S)-3-methyl-1-piperidyl]methyl}-4-cyclopropyl-6-{6-(ethylamino)-4-[4-fluoro-2-(4-methyl-4H-1,2,4-triazol-3-yl)phenyl]-2-pyridyl}-1,6-dihydro-1,6-diaza-7-indenone]	< 100	< 100
Cc1c[nH]nc1-c1cc(C#N)ccc1-c1cc(C2CC2)nc(-n2cc(C3CC3)c3cc(CN4CCC[C@H](C)C4)[nH]c3c2=O)c1 [Example 19, 4-[2-cyclopropyl-6-[4-cyclopropyl-2-[[(3S)-3-methylpiperidin-1-yl]methyl]-7-oxo-1H-pyrrolo[2,3-c]pyridin-6-yl]pyridin-4-yl]-3-(4-methyl-1H-pyrazol-3-yl)benzonitrile]	< 100	< 100
C[C@@H]1CN(Cc2cc3c(C#N)cn(-c4cc(-c5ccc(F)cc5-c5nncn5C)cc(C5CC5)n4)c(=O)c3[nH]2)CCO1 [Example 85, 6-[6-cyclopropyl-4-[4-fluoro-2-(4-methyl-1,2,4-triazol-3-yl)phenyl]pyridin-2-yl]-2-[[(2R)-2-methylmorpholin-4-yl]methyl]-7-oxo-1H-pyrrolo[2,3-c]pyridine-4-carbonitrile]	< 100	< 100
COCCCc1nc2c(C(F)(F)F)cn(-c3cc(-c4ccc(F)cc4-c4nncn4C)cc(C4CC4)n3)c(=O)c2[nH]1 [Example 41, 5-{6-Cyclopropyl-4-[4-fluoro-2-(4-methyl-4H-1,2,4-triazol-3-yl)phenyl]-2-pyridyl}-2-(3-methoxypropyl)-7-(trifluoromethyl)-3,5-dihydro-1,3,5-triaza-4-indenone]	< 100	< 100
